1 compound from patent US10058540B2, “2-amino-5,5-difluoro-6-(fluoromethyl)-6-phenyl-3,4,5,6-tetrahydropyridines as BACE1 inhibitors” (H. Lundbeck A/S, priority 2014, dated 2018) can be followed below.

Data set [1] deals with T1, BACE1 (Homo sapiens (Human), UniProt P56817). Description: BACE1 binding assay (SPA-based, radioligand). The settings on record: pH 4.5, Ki=IC50/(1+L/Kd). The method, then:
The binding assay was performed as SPA-based assay using a biotinylated form of human BACE1 recombinantly expressed and subsequently purified from Freestyle HEK293 cells. The binding assay was run in a 50 mM sodium acetate buffer, pH 4.5 containing 50 mM NaCl and 0.03% Tween-20 in white clear bottom 384 plates (Corning #3653). 10 nM (final concentration) radioligand ([^3H]-N-((1S,2R)-1-benzyl-3-cyclopropylamino-2-hydroxy-propyl)-5-(methanesulfonyl-methyl-amino)-N-((R)-1-phenyl-ethyl)-isophthalamide) (TRQ11569 purchased from GE Healthcare) was mixed with test compound at a given concentration, 6 nM (final concentration) human BACE1 and 25 μg Streptavidin coated PVT core SPA beads (RPNQ0007, GE Healthcare Life Sciences) in a total volume of 40 μl. Several concentrations of each test compound were tested in the assay for IC50 determination. The plates were incubated for one hour at room temperature and counted in a Wallac Trilux counter. Total and non-specific binding were determined using buffer and 1 μM (final concentration) of the high affinity BACE1 reference inhibitor (S)-6-[3-chloro-5-(5-prop-1-ynyl-pyridin-3-yl)-thiophen-2-yl]-2-imino-3,6-dimethyl-tetrahydro-pyrimidin-4-one, respectively. For each test compound, a IC50 value (the concentration mediating 50% inhibition of the specific binding of the radioligand) was determined from concentration-response curve and used to calculate the Ki from the equation Ki=IC50/(1+L/Kd), where L and Kd are the final concentration of the radioligand used in the assay and the dissociation constant of the radioligand, respectively. The Kd of the radioligand was determined from saturation binding experiments.

The target in data set [2] is T1, BACE1. Description: BACE1 efficacy assay (FRET-based, commercial BACE1 kit). The settings on record: 10 μM test compound. The data set is classed as biochemical. The method, then: The efficacy assay was performed as a FRET-based assay using a commercially available BACE1 kit (Life Technologies, P2985). 2 μl test compound at 10 μM (final concentration) and 15 μl BACE1 enzyme from the kit (final concentration 3 nM) were preincubated for 15 minutes at room temperature before addition of 15 μl of substrate from the kit (250 nM final concentration) and incubated for additional 90 minutes at room temperature. The assay plate was subsequently read in a Pherastar (Ex540/Em590). The enzyme activity observed in presence of test compound were normalized to the enzyme activity observed in presence of buffer and 10 μM (final concentration) of the high affinity BACE1 reference inhibitor (S)-6-[3-Chloro-5-(5-prop-1-ynyl-pyridin-3-yl)-thiophen-2-yl]-2-imino-3,6-dimethyl-tetra-hydropyrimidin-4-one, respectively. The efficacy of the test compounds was evaluated at 10 μM (final concentration) and defined as the percent inhibition of the enzyme activity using the equation % inhibition=100%−normalized enzyme activity in percent.

The test system of data set [3] is Aβ40. In words: Assessment of Aβ peptide levels in rat brain and plasma following BACE1 inhibition (Aβ40 ELISA). The data set is classed as in vivo. The settings on record: 3 hours post dose, vs vehicle. The procedure:
Assessment of Aβ Peptide Levels in Rat Brain and Plasma Following BACE1 Inhibition. Animals.
Young adult Male Sprague Dawley rats of approximately 250 g weight were purchased from Charles River and received 0-30 mg/kg of vehicle (10% HP betaCD+1M MeSO4, pH 2.5) or test compounds (dissolved in vehicle) only by oral gavage (p.o). The compounds are dosed at a volume of […]. Cohorts of 5-10 animals were established for each treatment condition.
At T=180 minutes after initial dosing the animals were stunned and decapitated with a guillotine. Trunk-blood was sampled in EDTA coated tubes after decapitation of the animal. The blood was centrifuged at 2200 G at 4° C. for 15 minutes and the plasma was collected and frozen at −80° C. The blood was aliquoted for Aβ ELISA and DMPK analysis. Immediately following sacrifice, the brain was extracted and split into 2 halves. The right hemibrains were snap frozen on dry ice and stored at −80° C. The left half was dissected; with the front forebrain taken for Aβ ELISA and the remainder used for DMPK analysis. These samples were also snap frozen on dry ice and stored at −80° C. until use for analysis.
The cortex samples were thawed slightly on wet ice before they were homogenized with a small volume dispersing instrument (T10 basic ULTRA-TURRAX®) which was set at speed 5 for approximately 5-7 sec. The tissue was processed in a 10 times volume of the weight, for example 100 mg of tissue was homogenized in 1000 μL of Homogenization buffer. Homogenization buffer: 50 ml Milli Q water+[…]+0.2% Diethylamin (DEA)+1 tablet of Complete Protease inhibitor cocktail+1 nM 4-(2-aminoethyl)benzenesulfonyl fluoride hydrochloride irreversible serine protease inhibitor (AEBSF).
After homogenization 450 μL aliquots of the samples are collected into a 1.5 ml Eppendorf tube and placed on wet ice, 0.5% NP-40 (50 ul) was added to all samples and then they were incubated on ice for 30 min. After which all samples were sonicated using an Ultrasonic homogenizer with 20 kHz homogeneous sound (SONOPLUS HD2070, Bandelin Electronic) 10 pulse set at 12-13% power to extract all the Aβ species. The samples were then centrifuged (Ole Dich 157 MPRF Micro centrifuge) at 20000 G for 20 minutes at 4° C. After centrifugation 285 μL of the supernatant was pipetted into 600 μL microtubes tubes and neutralized with 15 μL of 1M Tris-HCL buffer.
WAKO 294-62501 Human/Rat Abeta amyloid (40) kit was used for all ELISA analyses. 30 μL plasma samples or 30 μL of the cortex supernatants generated as described above were placed in 600 μL microtubes tubes on wet ice. To this 30 μL of 8M Urea (AppliChem A1049, 9025) are added to generate a 2-fold dilution. Both plasma and cortex supernatants are incubated on ice for 30 min. Standard rows were prepared from the standard peptide stock provided in the kit and standard diluent containing 1.6M Urea (200 μL 8M Urea+800 μL of standard diluent) and 0.8M Urea (400 μL 8M Urea+3600 μL Standard diluent). A serial 2-fold dilution of Aβ40 from 100 pmol/ml to 0 pmol/L was prepared for the assay.
After incubation with urea, all samples were further diluted by addition of 5 times standard diluent from the Kit. This was done by adding 240 μL Standard Diluent to 60 μL sample/urea mixture, which was then mixed well. 100 μL of each diluted sample was pipetted into designated wells of the ELISA plate in duplicates. The plate was then covered and incubated overnight at 4° C. The following day, the ELISA kit was brought to room temperature before use. The incubated plate was washed 5 times with the 20× washing solution diluted in Milli Q water. 100 μL HRP-conjugate was applied to each well, and the plate was covered and incubates at 4° C. for 1 hr. The wash was repeated again for 5 times. 100 μL 3,3′,5,5′-Tetramethylbenzidine (TMB) solution was applied to each well and the plate was covered and incubated in the dark at room temperature for 30 minutes. […]
On the technique in general: ELISA stands for enzyme-linked immunosorbent assay.

The test system of data set [4] is P-gp (MDR1). Description: MDCK-MDR1 assay (permeability / Pgp efflux). In kind it is in vitro ADME. The settings on record: dog, Papp BA/Papp AB, Pgp substrate when ≥2. The procedure:
The permeability of the test compounds was assessed in MDCK-MDR1 cells that were cultured to confluency (4-6 days) in a 96 transwell plate. Test compounds were diluted with the transport buffer (HBSS+1% BSA) to a concentration of 0.5 μM and applied to the apical or basolateral side of the cell monolayer. Permeation of the test compounds from A to B direction or B to A direction was determined in triplicate over a 60-minute incubation time at 37° C. and 5% CO2 with a relative humidity of 95%. Test compounds were quantified by LC-MS/MS analysis based on the peaks area ratios of analyte/IS in both the receiver and donor wells of the transwell plate.
The apparent permeability coefficient Papp (cm/s) was calculated using the equation: Papp=(dCr/dt)×Vr/(A×C0) Where dCr/dt is the cumulative concentration of compound in the receiver chamber as a function of time (μM/s); Vr is the solution volume in the receiver chamber (0.05 mL on the apical side; 0.25 mL on the basolateral side); A is the surface area for the transport, i.e. 0.0804 cm^2 for the area of the monolayer; C0 is the initial concentration in the donor chamber (μM).
Compounds are classified Pgp substrates when efflux ratio (Papp BA/Papp AB) is ≥2.

T1 sequence (P56817 46-501): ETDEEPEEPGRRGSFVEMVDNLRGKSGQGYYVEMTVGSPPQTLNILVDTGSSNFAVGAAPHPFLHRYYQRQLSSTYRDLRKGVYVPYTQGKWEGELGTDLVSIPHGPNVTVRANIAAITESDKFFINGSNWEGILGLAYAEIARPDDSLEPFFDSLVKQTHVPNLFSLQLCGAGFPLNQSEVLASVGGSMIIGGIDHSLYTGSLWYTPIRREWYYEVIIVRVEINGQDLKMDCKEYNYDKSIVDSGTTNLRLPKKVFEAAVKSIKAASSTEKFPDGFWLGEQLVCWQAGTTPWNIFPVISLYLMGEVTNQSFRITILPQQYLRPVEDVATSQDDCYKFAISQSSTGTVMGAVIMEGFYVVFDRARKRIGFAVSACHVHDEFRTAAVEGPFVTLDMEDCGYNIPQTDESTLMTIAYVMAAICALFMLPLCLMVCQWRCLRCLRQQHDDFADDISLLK

As usually defined, the Ki is a measure of affinity in units of concentration, obtained from inhibition or displacement. In general, inhibition refers to the change of the read-out against control, counted positive when it falls. In general, efflux ratio refers to a quotient of directional permeabilities that is used to spot active efflux. Take `COc1ccc(C(=O)Nc2cc(F)c(F)c([C@@]3(CF)N=C(N)CCC3(F)F)c2)nc1` [Compound 15, (S)-N-(3-(6-amino-3,3-difluoro-2-(fluoromethyl)-2,3,4,5-tetrahydropyridin-2-yl)-4,5-difluorophenyl)-5-methoxypicolinamide]: in data set [1], the Ki amounted to 9 nM. In data set [2], the inhibition at 10 µM was found to be 106%. Further, the Aβ40 reduction in data set [3] (rat brain, 10 mg/kg p.o.) is 33%; in data set [3] (rat brain, 30 mg/kg p.o.), 43%; in data set [3] (rat plasma, 10 mg/kg p.o.), 34%; in data set [3] (rat plasma, 30 mg/kg p.o.), 34%. Besides, the efflux ratio at 60 min, 0.5 μM in data set [4] is 1.09.
